Results reported in patent US11752155B2, “Treatment of autism spectrum disorders, obsessive-compulsive disorder and anxiety disorders” (Rugen Holdings (Cayman) Limited, priority 2016, dated 2023).
Counter-ions that a name gives are not always drawn. Like-named read-outs stand apart in the source and are kept apart here.

Columns and labels:
[1] = target: native rat brain NR2B receptors (Rattus norvegicus (Rat), UniProt P35439+Q00960); test: NR2B radioligand binding assay in rat brain using [3H] (E)-N1-(2-methoxybenzyl)-cinnamidine
Experimental: This example describes an NR2B receptor binding assay in rat brain using [^3H] […] The binding assay method was adapted from a previously described cellular human NR1a/NR2B cloned receptor assay (Kiss et al. Neurochem. Internatl. 2005, 46:453-464) to rat brain tissue. This assay serves as a selective measure of NR2B receptor binding activity in native rat brain receptors. Briefly, the brains of male Wistar rats were homogenized (Polytron) before centrifugation at 40,000×g for 15 minutes at 4° C. After 2 washes, the final pellet was homogenized and stored at −80° C. The protein concentration was determined by Bradford assay. [^3H] […] Non-specific binding was assessed in the presence of excess (10 μM) (E)-N1-(2-nethoxybenzyl)-cinnamidine.
Test compounds were solubilized at 10 mM in DMSO. Then the dilutions were performed with a constant solvent concentration (1% DMSO) in the assay. After incubation for 4.5 hours at room temperature, the assays were filtered on GF/3 filters pretreated with 0.3% (v/v) polyethylenimine (PEI) with a Packard system. The experiment was performed in duplicate (n=2).

human NR1/NR2B = human NR1/NR2B (Homo sapiens (Human), UniProt Q05586+Q13224); test: NR2B antagonist activity: calcium influx (Fluo-4) assay in HEK293 cells; assay type: cell-based
Experimental: Activation of the NR2A or NR2B subtype of NMDA receptor with glutamate as an agonist and glycine co-agonist on these cells results in calcium influx, which can be monitored with fluorescent indicator Fluo-4.
For experiments, the cells were seeded onto poly-D-lysine-coated 96-well black plates with clear bottom (Corning) at a density of ˜50,000 cells/well. After overnight culture, the growth medium was removed from the wells and the cells were incubated at 37° C. for 60 minutes in Hanks buffer containing 4 μM fluo-4-AM (Invitrogen) and 0.1% bovine serum albumin (BSA). After dye-loading, the cells were washed three times with Hanks buffer and incubated for 10 minutes at room temperature with various concentrations of test compounds prepared in Hanks buffer with 0.1% BSA. The cell plates were placed onto an FDSS Cell fluorescence reader (Hamamatsu). After 20 seconds of reading background fluorescence, agonist glutamate at final 100 µM and co-agonist glycine at final 50 μM were added to the cells to activate the receptor, and the resulting fluorescence changes were recorded and quantified. Based on the changes in fluorescence intensity, the pharmacological effect of test compounds was analyzed and the IC50 values derived from a non-linear least squares fitting of the concentration-dependent response to a standard logistic equation using Prism (Graphpad Software, Inc.): Amplitude=Max Amplitude/(1+(IC50/[antagonist])^n).

hERG channel = hERG channel (Homo sapiens (Human), UniProt Q12809); test: hERG channel inhibition, whole cell patch clamp in HEK293 cells; assay type: cell-based; conditions: Table 1.3A
[2] = test system: wild type mice (male NMRI); test: Marble Burying Test in wild type mice; assay type: in vivo, mouse; conditions: for change in vivo at 3 mg/kg / change in vivo at 10 mg/kg / change in vivo at 30 mg/kg: Mus musculus, ip, read-out: Percent Change in marbles buried relative to vehicle
Experimental: Animals. Male NMRI mice (20-30 g body weight) were obtained from Janvier Labs (Le Genest-Saint Isle, France) and allowed to acclimate to the animal facility for at least 5 days. Twelve mice were studied per treatment group.
Compound formulation. The test compounds were prepared in a vehicle of 0.5% DMSO and 4% HP-β-CD, and administered orally (PO) or IP. The test compounds or vehicle were administered 20 minutes before the behavioral test described below. Clobazam (8 mg/kg IP), administered 30 minutes before the test, was used as the positive reference compound.
Clobazam was dispersed in 0.2% hydroxypropylmethylcellulose (HPMC) in physiological saline. Dosing volume was 10 mL/kg.
Testing procedure. The Marble Burying Test was conducted as previously described by Broekkamp et al. (Eur. J. Pharmacol. 1986, 126:223-229). Mice exposed to small novel objects (marbles) will bury them in the sawdust floor covering. Anxiolytics decrease the number of marbles buried at non-sedating doses. Mice were individually placed in transparent plastic cages (33×21×18 cm) with 5 cm of sawdust on the floor and 25 marbles grouped in the center of the cage. The cage was covered with an inverted plastic cage. Each test cage, together with the marbles, was impregnated with mouse odor before-hand by leaving 10 mice in the cage for 15 minutes. These mice then played no further role in the experiment. The number of marbles covered by sawdust (⅔ or more) was counted at the end of the 30-minute test. The test was performed blind (compounds versus vehicle).
Statistical analyses. Data were analyzed by comparing test compound-treated groups with the vehicle control group using the Kruskal-Wallis test followed by post-hoc Mann-Whitney U tests. Data comparing the reference compound with the vehicle were analyzed using the Mann-Whitney U test. A p value<0.05 was considered significant.

[3] = test system: wild type mice (male C57Bl/6); test: Novelty Phobia Test in wild type mice; assay type: in vivo, mouse; conditions: for Percent Change in Novel Object Number of Nose Touches relative to vehicle control: pre-test time 10 min; for pattern of the dose-response function for bouts of nose touching: mouse, in vivo
Experimental: Animals. Male C57Bl/6 mice (18-30 g body weight; 6-8 weeks of age) were obtained from Slaccas (Shanghai, China) and allowed to acclimate to the animal facility for 7 days. Mice were group housed in plastic cages (no more than 4 animals per cage) on wood shavings with nesting material. All animals had free access to food (M01-F, Slaccas) and water. The animal facility was maintained under artificial lighting between 7:00 AM and 7:00 PM in a controlled ambient temperature of 22-24° C. and relative humidity between 50-60%.
Compound formulation. The test compounds were prepared in a vehicle of DMSO and HP-β-CD, and administered IP or PO. The test compounds or vehicle were administered at various times (10-20 minutes) before the behavioral test described below. Dosing volume was 10 mL/kg.
Testing procedure. The behavioral testing apparatus was a rectangular black Plexiglas, 2-chambered box, with no top or bottom (50 cm long, 26 cm wide and 15 cm tall) and allowed for the simultaneous testing of 2 mice. The box was placed on a laboratory bench. The chambers of the testing box were cleaned and fresh paper chip bedding was added between tests. Mice were brought to the experiment room in their home cages on the day of testing. Behavioral tests were conducted between 10:00 AM and 1:00 PM in dim light. After drug administration, a mouse was placed into a test chamber and allowed to explore for 10 minutes. After this habituation period, a novel object (e.g., a toy ball of 3 cm in diameter with spikes) was introduced to the center of the chamber for 5 minutes. For the entire 15-minute test period, video was recorded for offline analysis with Any-maze Video Tracking software (Stoelting Co., Wood Dale, Ill.). The total distance traveled during the entire 15 minutes and the number of bouts that each mouse touched the novel object during the last 5 minutes were measured.
Statistical analyses. Data are presented as means and SEMs. Data were analyzed using one-way analysis of variance (ANOVA; Prism, GraphPad Software Inc., San Diego, Calif.), followed by the post-hoc Dunnett's test to compare test compound-treated groups with the vehicle control. A p value<0.05 was considered significant.

[4] = read-out: hNR2B IC50, Table 1.3A
[5] = Table 1.1A, read-out: NR2B IC50
[6] = Table 1.3A, read-out: hNR2B IC50
[7] = rat brain NR2B receptors, mean of replicates, read-out: Arithmetic Mean Ki

Sequence of hERG channel (Q12809 whole entry): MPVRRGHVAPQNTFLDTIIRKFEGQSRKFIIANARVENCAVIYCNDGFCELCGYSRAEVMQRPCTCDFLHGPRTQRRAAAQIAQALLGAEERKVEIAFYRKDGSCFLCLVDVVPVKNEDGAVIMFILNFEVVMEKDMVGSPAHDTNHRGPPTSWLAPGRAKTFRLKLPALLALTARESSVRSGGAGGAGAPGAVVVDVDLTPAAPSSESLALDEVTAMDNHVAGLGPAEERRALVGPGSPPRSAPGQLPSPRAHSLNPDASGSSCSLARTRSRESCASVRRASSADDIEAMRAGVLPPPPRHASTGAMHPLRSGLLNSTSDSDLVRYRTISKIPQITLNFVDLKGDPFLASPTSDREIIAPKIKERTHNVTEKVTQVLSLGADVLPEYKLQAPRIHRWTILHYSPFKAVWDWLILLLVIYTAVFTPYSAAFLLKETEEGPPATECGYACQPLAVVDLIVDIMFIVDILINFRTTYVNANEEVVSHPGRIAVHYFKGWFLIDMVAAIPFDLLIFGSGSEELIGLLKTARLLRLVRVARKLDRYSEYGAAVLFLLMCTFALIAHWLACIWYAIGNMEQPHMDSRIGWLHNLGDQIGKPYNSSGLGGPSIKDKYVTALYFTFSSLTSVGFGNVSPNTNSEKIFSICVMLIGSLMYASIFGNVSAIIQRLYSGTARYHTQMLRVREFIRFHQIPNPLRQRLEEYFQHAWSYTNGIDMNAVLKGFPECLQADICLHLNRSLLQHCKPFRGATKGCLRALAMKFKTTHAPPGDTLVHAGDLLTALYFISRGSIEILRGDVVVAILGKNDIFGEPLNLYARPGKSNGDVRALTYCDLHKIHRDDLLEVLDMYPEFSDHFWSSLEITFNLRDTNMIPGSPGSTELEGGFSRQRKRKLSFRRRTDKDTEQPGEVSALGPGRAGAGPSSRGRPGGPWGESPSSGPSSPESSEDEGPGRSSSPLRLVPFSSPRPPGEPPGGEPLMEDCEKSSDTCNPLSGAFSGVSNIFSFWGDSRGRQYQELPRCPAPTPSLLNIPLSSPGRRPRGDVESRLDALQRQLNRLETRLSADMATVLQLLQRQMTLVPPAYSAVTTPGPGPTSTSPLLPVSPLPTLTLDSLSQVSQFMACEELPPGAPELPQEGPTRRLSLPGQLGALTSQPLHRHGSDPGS
Sequence of human NR1/NR2B (Q13224 27-1484, other chains not shown): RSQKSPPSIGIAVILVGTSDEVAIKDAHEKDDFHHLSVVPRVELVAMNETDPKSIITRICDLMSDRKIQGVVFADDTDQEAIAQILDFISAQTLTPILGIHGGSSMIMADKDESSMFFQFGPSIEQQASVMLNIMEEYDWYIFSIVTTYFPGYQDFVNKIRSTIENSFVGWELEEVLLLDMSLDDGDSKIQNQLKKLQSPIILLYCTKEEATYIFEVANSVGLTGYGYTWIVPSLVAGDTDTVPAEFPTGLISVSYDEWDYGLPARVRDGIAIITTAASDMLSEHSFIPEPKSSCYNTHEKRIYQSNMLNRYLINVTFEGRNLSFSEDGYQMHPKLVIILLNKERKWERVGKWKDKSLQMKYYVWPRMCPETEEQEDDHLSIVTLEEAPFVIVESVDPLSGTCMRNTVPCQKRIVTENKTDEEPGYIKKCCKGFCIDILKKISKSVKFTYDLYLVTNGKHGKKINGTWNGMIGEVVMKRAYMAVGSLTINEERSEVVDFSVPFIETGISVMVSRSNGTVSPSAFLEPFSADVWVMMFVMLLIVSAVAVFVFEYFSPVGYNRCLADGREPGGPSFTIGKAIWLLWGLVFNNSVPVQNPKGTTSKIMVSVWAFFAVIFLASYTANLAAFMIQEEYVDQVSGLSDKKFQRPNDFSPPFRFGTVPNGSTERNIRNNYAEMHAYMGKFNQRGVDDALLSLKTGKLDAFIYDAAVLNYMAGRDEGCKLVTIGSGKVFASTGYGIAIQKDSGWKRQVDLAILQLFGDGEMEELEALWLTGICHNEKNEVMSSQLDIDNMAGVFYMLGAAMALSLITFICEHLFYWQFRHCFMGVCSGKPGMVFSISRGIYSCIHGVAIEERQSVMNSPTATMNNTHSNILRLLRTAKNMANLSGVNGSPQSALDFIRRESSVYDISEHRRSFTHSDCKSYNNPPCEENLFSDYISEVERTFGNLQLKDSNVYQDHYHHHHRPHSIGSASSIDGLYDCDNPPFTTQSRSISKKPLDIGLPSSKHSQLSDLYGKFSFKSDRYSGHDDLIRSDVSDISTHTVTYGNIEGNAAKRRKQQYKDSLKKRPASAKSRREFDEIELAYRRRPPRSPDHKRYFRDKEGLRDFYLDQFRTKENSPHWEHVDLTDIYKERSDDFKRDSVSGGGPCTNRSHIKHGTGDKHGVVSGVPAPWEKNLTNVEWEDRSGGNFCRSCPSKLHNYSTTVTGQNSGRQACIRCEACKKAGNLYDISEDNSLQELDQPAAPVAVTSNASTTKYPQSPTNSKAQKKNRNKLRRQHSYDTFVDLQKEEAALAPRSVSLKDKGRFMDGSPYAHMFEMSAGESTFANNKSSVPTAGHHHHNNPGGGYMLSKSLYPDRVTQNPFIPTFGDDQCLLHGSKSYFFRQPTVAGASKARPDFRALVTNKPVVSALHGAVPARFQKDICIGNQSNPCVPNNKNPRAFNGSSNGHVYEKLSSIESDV
Sequence of native rat brain NR2B receptors (Q00960 27-1482, other chains not shown): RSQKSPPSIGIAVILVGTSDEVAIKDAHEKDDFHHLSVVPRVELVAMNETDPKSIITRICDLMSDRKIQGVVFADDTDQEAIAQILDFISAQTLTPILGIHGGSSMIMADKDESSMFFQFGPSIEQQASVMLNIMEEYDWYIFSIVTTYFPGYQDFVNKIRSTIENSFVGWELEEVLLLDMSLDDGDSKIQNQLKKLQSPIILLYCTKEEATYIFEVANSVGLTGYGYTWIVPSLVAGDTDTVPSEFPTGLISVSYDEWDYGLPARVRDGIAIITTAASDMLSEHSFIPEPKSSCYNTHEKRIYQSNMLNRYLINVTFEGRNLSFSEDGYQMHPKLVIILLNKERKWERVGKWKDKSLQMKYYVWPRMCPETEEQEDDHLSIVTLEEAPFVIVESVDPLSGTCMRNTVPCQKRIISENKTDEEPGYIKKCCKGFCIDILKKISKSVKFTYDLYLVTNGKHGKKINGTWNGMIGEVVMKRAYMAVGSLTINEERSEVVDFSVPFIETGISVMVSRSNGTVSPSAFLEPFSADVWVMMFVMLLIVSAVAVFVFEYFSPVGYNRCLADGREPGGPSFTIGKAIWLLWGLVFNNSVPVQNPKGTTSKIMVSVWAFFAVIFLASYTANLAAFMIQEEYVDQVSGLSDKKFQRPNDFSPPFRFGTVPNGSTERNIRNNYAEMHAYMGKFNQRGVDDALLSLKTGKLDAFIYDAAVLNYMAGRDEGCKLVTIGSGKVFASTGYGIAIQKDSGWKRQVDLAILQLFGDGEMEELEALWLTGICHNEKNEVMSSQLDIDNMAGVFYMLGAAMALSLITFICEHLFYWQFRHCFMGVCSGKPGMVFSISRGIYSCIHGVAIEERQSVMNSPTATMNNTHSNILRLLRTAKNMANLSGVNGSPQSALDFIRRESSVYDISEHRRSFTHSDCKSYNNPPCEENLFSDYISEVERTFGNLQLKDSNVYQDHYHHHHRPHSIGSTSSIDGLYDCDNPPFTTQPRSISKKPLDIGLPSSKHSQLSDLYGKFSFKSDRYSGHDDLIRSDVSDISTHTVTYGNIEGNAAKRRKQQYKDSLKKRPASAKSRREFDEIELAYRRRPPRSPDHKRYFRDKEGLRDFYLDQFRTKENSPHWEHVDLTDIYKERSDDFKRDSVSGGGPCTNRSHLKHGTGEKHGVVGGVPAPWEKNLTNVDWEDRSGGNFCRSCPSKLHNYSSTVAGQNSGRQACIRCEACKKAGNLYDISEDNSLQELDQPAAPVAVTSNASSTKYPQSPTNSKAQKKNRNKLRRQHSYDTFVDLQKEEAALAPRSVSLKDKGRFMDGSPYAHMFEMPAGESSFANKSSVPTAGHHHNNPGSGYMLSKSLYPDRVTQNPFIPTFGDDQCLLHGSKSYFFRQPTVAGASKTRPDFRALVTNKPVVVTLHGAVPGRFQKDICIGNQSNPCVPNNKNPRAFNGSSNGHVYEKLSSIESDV

COc1ccccc1CNC(=N)/C=C/c1ccccc1 [(E)-N1-(2-methoxybenzyl)-cinnamidine, reference compound]
Ki ([1]; high affinity site, rat brain membranes, read-out: inhibition constant (Ki), mean): 0.22 nM

Fc1ccc(C(F)(F)CN2CCC(Nc3ncnc4[nH]ccc34)CC2)nc1 [C-2^A′]
IC50 (human NR1/NR2B): 124 nM

Cc1ccc(C(F)(F)CN2CCC(Nc3ncnc4[nH]ccc34)CC2)nc1 [C-4^A′]
IC50 (human NR1/NR2B): 35 nM | IC50 (human NR1/NR2B; [4]): 35 nM

FC(F)c1ccc(C(F)(F)CN2CCC(Nc3ncnc4[nH]ccc34)CC2)nc1 [C-6^A′]
IC50 (human NR1/NR2B; [5]): 31 nM | IC50 (human NR1/NR2B; [6]): 31 nM | IC50 (hERG channel): 6900 nM | change in vivo at 3 mg/kg [2]: -23% | change in vivo at 10 mg/kg [2]: -62% | change in vivo at 30 mg/kg [2]: -100%

FCc1ccc(C(F)(F)CN2CCC(Nc3ncnc4[nH]ccc34)CC2)nc1 [C-7^A′]
IC50 (human NR1/NR2B): 14 nM

FC(F)Oc1ccc(C(F)(F)CN2CCC(Nc3ncnc4[nH]ccc34)CC2)nc1 [C-12^A′]
change in vivo at 3 mg/kg [2]: -14% | change in vivo at 10 mg/kg [2]: -56% | change in vivo at 30 mg/kg [2]: -100% | bouts of nose touching of the novel object, efficacy ([3]; IP (C-11 also PO)): not efficacious

Fc1cc(Cl)cnc1C(F)(F)CN1CCC(Nc2ncnc3[nH]ccc23)CC1 [C-16^A′]
IC50 (human NR1/NR2B): 47 nM | IC50 (human NR1/NR2B; [4]): 47 nM | IC50 (hERG channel): 60000 nM

Cc1cnc(C(F)(F)CN2CCC(Nc3ncnc4[nH]ccc34)CC2)c(F)c1 [C-17^A′]
IC50 (human NR1/NR2B): 44 nM

Fc1cc(C(F)(F)F)cnc1C(F)(F)CN1CCC(Nc2ncnc3[nH]ccc23)CC1 [C-18^A′]
IC50 (human NR1/NR2B; [5]): 84 nM

Cc1ccc(C(F)(F)CN2CCC(N(C)c3ncnc4[nH]ccc34)CC2)nc1 [C-47^A′]
IC50 (human NR1/NR2B; [5]): 140 nM

Cc1ccc(C(F)(F)CN2CCC(Nc3ncnc4[nH]ccc34)CC2)cn1 [C-128^A′]
IC50 (human NR1/NR2B): 89 nM | IC50 (human NR1/NR2B; [4]): 89 nM

Fc1ccc(C(F)(F)CN2CCC(Nc3ncnc4[nH]ccc34)CC2)cc1 [C-175^A′]
IC50 (human NR1/NR2B): 22 nM | IC50 (human NR1/NR2B; read-out: NR2B IC50, Table 1.4A): 22 nM | IC50 (human NR1/NR2B; [4]): 22 nM | Percent Change in Novel Object Number of Nose Touches relative to vehicle control ([3]; IP, 3 mg/kg): 25.1% | Percent Change in Novel Object Number of Nose Touches relative to vehicle control ([3]; IP, 10 mg/kg): 139% | Percent Change in Novel Object Number of Nose Touches relative to vehicle control ([3]; IP, 30 mg/kg): −88.1% | pattern of the dose-response function for bouts of nose touching [3]: inverted U-shaped dose-response function

FC(F)(CN1CCC(Nc2ncnc3[nH]ccc23)CC1)c1ccc(Cl)cc1 [C-176^A′]
IC50 (human NR1/NR2B): 26 nM

Cc1ccc(C(F)(F)CN2CCC(Nc3ncnc4[nH]ccc34)CC2)cc1 [C-177^A′]
IC50 (human NR1/NR2B): 27 nM

FC(F)(F)c1ccc(C(F)(F)CN2CCC(Nc3ncnc4[nH]ccc34)CC2)cc1 [C-178^A′]
IC50 (human NR1/NR2B; [5]): 64 nM | IC50 (human NR1/NR2B; [6]): 64 nM | IC50 (human NR1/NR2B; Table 1.4A, read-out: NR2B IC50): 64 nM | IC50 (hERG channel): 1600 nM | change in vivo at 0.3 mg/kg ([3]; Mus musculus, ip, 20 min, IP, 0.3 mg/kg, pre-test time 20 min, read-out: Percent Change in Novel Object Number of Nose Touches relative to vehicle control): -4.12% | change in vivo at 1 mg/kg ([3]; Mus musculus, ip, 20 min, IP, 1 mg/kg, pre-test time 20 min, read-out: Percent Change in Novel Object Number of Nose Touches relative to vehicle control): 50.3% | change in vivo at 3 mg/kg ([3]; Mus musculus, ip, 20 min, IP, 3 mg/kg, pre-test time 20 min, read-out: Percent Change in Novel Object Number of Nose Touches relative to vehicle control): 110% | pattern of the dose-response function for bouts of nose touching [3]: dose-dependent increases

Cc1cnc(C(F)(F)CN2CCC(Nc3ncnc4[nH]ccc34)CC2)cn1 [C-230^A′]
IC50 (human NR1/NR2B): 88 nM | IC50 (human NR1/NR2B; [4]): 88 nM

Cc1ccc(COC(=O)N2CC[C@H](CNc3cnc(C#N)cn3)C(F)(F)C2)cc1 [E1-21.30^B′, (R)-4-methylbenzyl 4-(((5-cyanopyrazin-2-yl)amino)methyl)-3,3-difluoropiperidine-1-carboxylate]
Ki [1, 7]: 31 nM

Cc1cnc(NC[C@H]2CCN(C(=O)OCc3ccc(Cl)cc3)CC2(F)F)cn1 [E1-21.33^B′, (R)-4-chlorobenzyl 3,3-difluoro-4-(((5-methylpyrazin-2-yl)amino)methyl)piperidine-1-carboxylate mesylate]
Ki [1, 7]: 11 nM

Cc1cnc(NC[C@H]2CCN(C(=O)OCc3ccc(F)cc3)CC2(F)F)cn1 [E1-21.34^B′, (R)-4-fluorobenzyl 3,3-difluoro-4-(((5-methylpyrazin-2-yl)amino)methyl)piperidine-1-carboxylate mesylate]
Ki [1, 7]: 16 nM

Cc1ccc(COC(=O)N2CC[C@H](CNc3ncc(C(F)(F)F)cn3)C(F)(F)C2)cc1 [E1-22.29^B′, (R)-4-methylbenzyl 3,3-difluoro-4-(((5-(trifluoromethyl)pyrimidin-2-yl)amino)methyl)piperidine-1-carboxylate methanesulfonate]
Ki [1, 7]: > 1000 nM

O=C(OCc1ccc(F)cc1)N1CC[C@H](CNc2ccccn2)C(F)(F)C1 [E1-23.4^B′, (R)-4-fluorobenzyl 3,3-difluoro-4-((pyridin-2-ylamino)methyl)piperidine-1-carboxylate]
Ki [1, 7]: 7.8 nM

Cc1ccc(COC(=O)N2CC[C@H](CNc3cccc(C)n3)C(F)(F)C2)cc1 [E1-23.32^B′, (+)-(R)-4-methylbenzyl 3,3-difluoro-4-(((6-methylpyridin-2-yl)amino)methyl)piperidine-1-carboxylate]
Ki [1, 7]: 31 nM

CN1C(=O)CC(=O)N(c2ccccc2)c2cc(Cl)ccc21 [clobazam, Clobazam, reference compound]
number of buried marbles, positive reference ([2]; 8 mg/kg IP, 30 minutes before the test, data not shown): significantly reduced the number of buried marbles
